This note sets out measurements from patent US11999727B2 (Tango Therapeutics, Inc., priority 2020, dated 2024).

Format in all cases: cell-based
Assay [1] has as its system HAP1 MTAP-deleted cell line. Briefly: Viability assay, MTAP-deleted cell line. Particulars: Homo sapiens. The source says: Table 1 additionally indicates IC50 values in a viability assay for the MTAP-deleted cell line (column 10), indicating the effect of treatment with compound on cell survival.
Assay [2] has as its system HAP1 MTAP-deleted cell line. Briefly: SDMA in-cell western assay, HAP1 MTAP-deleted. Particulars: for IC50: Homo sapiens. The source says:
(§1) Table 1 also indicates IC50 values in an MTAP-isogenic cell line pair for exemplary compounds in an SDMA in-cell western assay (columns 7-8). HAP1 MTAP-intact is a cell line in which endogenous levels of MTAP are expressed, and HAP1 MTAP-deleted is an MTAP-null cell line.

In assay [3] the test system is HAP1 MTAP-intact cell line. Briefly: SDMA in-cell western assay, HAP1 MTAP-intact. Particulars: Homo sapiens.
Description: as §1

[4] abbreviates: HAP1, read-out: HAP1 MTAP deleted viability.
Setting [5] is: HAP1, read-out: HAP1 MTAP deleted IC50.
Where [6] appears, read: HAP1, read-out: MTAP HAP1 intact IC50.

Read-outs that look alike come from different tables or passages of the source. Bounds are passed on as bounds.

In the case of `Cc1cc(NC(=O)C(=O)N2C[C@H](C)CC[C@H]2c2ccc(O)cc2)cnc1N` (racemic) [Compound 164, rac-N-(6-amino-5-methylpyridin-3-yl)-2-((2R,5S)-2-(4-hydroxyphenyl)-5-methylpiperidin-1-yl)-2-oxoacetamide], the IC50 in assay [1] (setting [4]) was less than 1000 nM; in assay [2] (setting [5]), less than 100 nM; in assay [3] (setting [6]), 100 to 1000 nM.

With `Cc1cc(NC(=O)C(=O)N2C[C@H](C)CC[C@H]2c2ccc3cn[nH]c3c2)cnc1N` (stereo in doubt) [Compound 613, N-(6-amino-5-methyl-3-pyridyl)-2-[(2S,5R)-2-(1H-indazol-6-yl)-5-methyl-1-piperidyl]-2-oxo-acetamide], the IC50 is greater than 10000 nM in assay [1] (HAP1, viability IC50, MTAP-deleted cell line, read-out: HAP1 MTAP deleted viability); greater than 1000 nM in assay [2] (HAP1, SDMA in-cell western, HAP1 MTAP-deleted, read-out: HAP 1 MTAP deleted IC50); greater than 1000 nM in assay [3] (HAP1, SDMA in-cell western, HAP1 MTAP-intact, read-out: MTAP HAP1 intact IC50). Besides, in assay [2] (IC50 ratio HAP1 MTAP-intact / HAP1 MTAP-deleted, SDMA in-cell western), the MTAP intact/deleted ratio result is listed as “C (an IC50 ratio of less than 3 fold)”.

On to `Cc1cc(NC(=O)C(=O)N2C[C@H](C)CC[C@@H]2c2ccc3c(c2)CCC(=O)N3)cnc1N` (racemic) [Compound 583, N-(6-Amino-5-methyl-3-pyridyl)-2-[(2R,5R)-5-methyl-2-(2-oxo-3,4-dihydro-1H-quinolin-6-yl)-1-piperidyl]-2-oxo-acetamide], for which the IC50 in assay [1] (setting [4]) was less than 1000 nM; in assay [2] (setting [5]), less than 100 nM; in assay [3] (setting [6]), less than 100 nM.

For the compound `Cc1cc(NC(=O)C(=O)N2C[C@@H](C)CC[C@@H]2c2ccc3[nH]ncc3c2)cnc1N` (single isomer, unassigned) [Compound 364], the IC50 was greater than 10000 nM in assay [1] (setting [4]), greater than 1000 nM in assay [2] (setting [5]) and greater than 1000 nM in assay [3] (setting [6]).

Regarding `Cc1cc(NC(=O)C(=O)N2C[C@H](C)CC[C@H]2c2ccc3c(c2)CCC(=O)N3)cnc1N` (single isomer, unassigned) [Compound 505], the IC50 in assay [1] (setting [4]) was less than 1000 nM; in assay [2] (setting [5]), less than 100 nM; in assay [3] (setting [6]), 100 to 1000 nM.

For the compound `Cc1cc(NC(=O)C(=O)N2C[C@@H](C)CC[C@@H]2c2ccc(O)cc2)cnc1N` (single isomer, unassigned) [Compound 396], the IC50 in assay [1] (setting [4]) is greater than 10000 nM; in assay [2] (setting [5]) it was greater than 1000 nM; in assay [3] (setting [6]), greater than 1000 nM.

For `C[C@@H]1CC[C@@H](c2ccc3[nH]ncc3c2)N(C(=O)C(=O)Nc2cncc(C(N)=O)c2)C1` (single isomer, unassigned) [Compound 361], the IC50 in assay [1] (setting [4]) is less than 1000 nM; in assay [2] (setting [5]), less than 100 nM; in assay [3] (setting [6]) it was 100 to 1000 nM.

With `C[C@@H]1CC[C@@H](c2ccc3[nH]ccc3c2)N(C(=O)C(=O)Nc2cncc(C(N)=O)c2)C1` (single isomer, unassigned) [Compound 372], the IC50 in assay [1] (setting [4]) was greater than 10000 nM; in assay [2] (setting [5]) it was greater than 1000 nM; in assay [3] (setting [6]), greater than 1000 nM.

Take `C[C@H]1CC[C@H](c2ccc3scnc3c2)N(C(=O)C(=O)Nc2cncc(C(N)=O)c2)C1` (single isomer, unassigned) [Compound 587]: the IC50 was less than 1000 nM in assay [1] (setting [4]), less than 100 nM in assay [2] (setting [5]) and 100 to 1000 nM in assay [3] (setting [6]).

On to `C[C@H]1CC[C@H](c2ccc3scnc3c2)N(C(=O)C(=O)Nc2cnc(N)c(C3CC3)c2)C1` [Compound 1319, N-(6-amino-5-cyclopropyl-3-pyridyl)-2-[(2R,5S)-2-(1,3-benzothiazol-5-yl)-5-methyl-1-piperidyl]-2-oxo-acetamide], for which the IC50 in assay [1] (setting [4]) was less than 1000 nM; in assay [2] (setting [5]) it was less than 100 nM; in assay [3] (setting [6]) it was 100 to 1000 nM.

Take `Cc1cc(NC(=O)C(=O)N2C[C@@H](C)CC[C@@H]2c2ccc3sc(N4CCN(C)CC4)nc3c2)cnc1N` [Compound 1158, N-(6-amino-5-methylpyridin-3-yl)-2-((2R,5S)-5-methyl-2-(2-(4-methylpiperazin-1-yl)benzo[d]thiazol-5-yl)piperidin-1-yl)-2-oxoacetamide]: the IC50 was less than 1000 nM in assay [1] (setting [4]), less than 100 nM in assay [2] (setting [5]) and less than 100 nM in assay [3] (setting [6]).

For `Cc1cc(NC(=O)C(=O)N2CCCC[C@@H]2c2ccccc2)cnc1C` (single isomer, unassigned) [Compound 189], the IC50 in assay [1] (setting [4]) is greater than 10000 nM; in assay [2] (setting [5]) it was greater than 1000 nM; in assay [3] (setting [6]) it was greater than 1000 nM.

On to `Cc1cc(NC(=O)C(=O)N2C[C@H](C)CC[C@H]2c2ccc(F)cc2)cnc1N` (single isomer, unassigned) [Compound 233], for which the IC50 in assay [1] (setting [4]) is greater than 10000 nM; in assay [2] (setting [5]), greater than 1000 nM; in assay [3] (setting [6]), greater than 1000 nM.

On to `Cc1cc(NC(=O)C(=O)N2C[C@@H](C)CC[C@H]2c2ccc3[nH]ncc3c2)cnc1N` (single isomer, unassigned) [Compound 392], for which the IC50 in assay [1] (setting [4]) is 1000 to 10000 nM; in assay [2] (setting [5]) it was less than 100 nM; in assay [3] (setting [6]), greater than 1000 nM.

On to `Cc1cncc(NC(=O)C(=O)N2[C@@H](c3ccccc3)CC[C@@H](C)[C@H]2C)c1` (single isomer, unassigned) [Compound 35], for which the IC50 in assay [1] (setting [4]) is greater than 10000 nM; in assay [2] (setting [5]) it was greater than 1000 nM; in assay [3] (setting [6]) it was greater than 1000 nM.

As to `Cc1cc(NC(=O)C(=O)N2CC(C)CCC2c2ccccc2)cnc1N` (mixture of isomers) [Compound 27, N-(6-Amino-5-methyl-3-pyridyl)-2-(5-methyl-2-phenyl-1-piperidyl)-2-oxo-acetamide], the figures for the IC50 in assay [1] (setting [4]), in assay [2] (setting [5]) and in assay [3] (setting [6]) were 1000 to 10000 nM, less than 100 nM and greater than 1000 nM, respectively.

As for `C[C@@H]1CC[C@@H](c2ccc3cnccc3c2)N(C(=O)C(=O)Nc2cncc(C(N)=O)c2)C1` (single isomer, unassigned) [Compound 892], the IC50 in assay [1] (setting [4]) was less than 1000 nM; in assay [2] (setting [5]), less than 100 nM; in assay [3] (setting [6]), greater than 1000 nM.

Regarding `C[C@H]1CC[C@H](c2ccc3sc(C4CCN(C)CC4)nc3c2)N(C(=O)C(=O)Nc2cnc(N)c(C3COC3)c2)C1` (single isomer, unassigned) [Compound 1334], the IC50 is less than 1000 nM in assay [1] (setting [4]), less than 100 nM in assay [2] (setting [5]) and less than 100 nM in assay [3] (setting [6]).

As for `Cc1cncc(NC(=O)C(=O)N2[C@H](c3ccccc3)CC[C@@H](C)[C@@H]2C)c1` (racemic) [Compound 23, rac-2-[(2S,3R,6S)-2,3-dimethyl-6-phenyl-1-piperidyl]-N-(5-methyl-3-pyridyl)-2-oxo-acetamide], the IC50 in assay [1] (setting [4]) is greater than 10000 nM; in assay [2] (setting [5]), greater than 1000 nM; in assay [3] (setting [6]), greater than 1000 nM.

Consider `Cc1cncc(NC(=O)C(=O)N2C[C@@H](C)CC[C@@H]2c2ccccc2)c1` (single isomer, unassigned) [Compound 2], for which the IC50 was greater than 10000 nM in assay [1] (setting [4]), greater than 1000 nM in assay [2] (setting [5]) and greater than 1000 nM in assay [3] (setting [6]).

`C[C@H]1CC[C@H](c2ccc(C(F)F)cc2)N(C(=O)C(=O)Nc2cncc(C(N)=O)c2)C1` (single isomer, unassigned) [Compound 359]: the IC50 was 1000 to 10000 nM in assay [1] (setting [4]), less than 100 nM in assay [2] (setting [5]) and greater than 1000 nM in assay [3] (setting [6]).

Consider `Cc1cc(NC(=O)C(=O)N2C[C@H](C)CC[C@H]2c2ccc3[nH]ncc3c2)cnc1N` (single isomer, unassigned) [Compound 363], for which the figures for the IC50 in assay [1] (setting [4]), in assay [2] (setting [5]) and in assay [3] (setting [6]) were less than 1000 nM, less than 100 nM and less than 100 nM, respectively.

As to `C[C@H]1CC[C@H](c2ccc3c(c2)CCC(=O)N3)N(C(=O)C(=O)Nc2cncc(C(N)=O)c2)C1` (single isomer, unassigned) [Compound 479], the IC50 in assay [1] (setting [4]) is 1000 to 10000 nM; in assay [2] (setting [5]), less than 100 nM; in assay [3] (setting [6]), greater than 1000 nM.

`Cc1cc(NC(=O)C(=O)N2C[C@H](C)CC[C@H]2c2ccc3[nH]ccc3c2)cnc1N` (single isomer, unassigned) [Compound 385]: the IC50 was less than 1000 nM in assay [1] (setting [4]), less than 100 nM in assay [2] (setting [5]) and 100 to 1000 nM in assay [3] (setting [6]).

Turning to `Cc1cc(NC(=O)C(=O)N2C[C@H](C)CC[C@H]2c2ccc3sc(CN(C)C)nc3c2)cnc1N` (racemic) [Compound 1106, N-(6-amino-5-methylpyridin-3-yl)-2-(2-(2-((dimethylamino)methyl)benzo[d]thiazol-5-yl)-5-methylpiperidin-1-yl)-2-oxoacetamide], the IC50 in assay [1] (setting [4]) is less than 1000 nM; in assay [2] (setting [5]), less than 100 nM; in assay [3] (setting [6]) it was less than 100 nM.

For `Cc1cncc(NC(=O)C(=O)N2[C@@H](c3ccccc3)CC[C@H](C)[C@H]2C)c1` (single isomer, unassigned) [Compound 32], the IC50 in assay [1] (setting [4]) is greater than 10000 nM; in assay [2] (setting [5]), greater than 1000 nM; in assay [3] (setting [6]) it was greater than 1000 nM.

Turning to `Cc1cc(NC(=O)C(=O)N2C[C@@H](C)CC[C@@H]2c2ccc3sc(CCN(C)C)nc3c2)cnc1N` (single isomer, unassigned) [Compound 1279], the IC50 in assay [1] (setting [4]) is less than 1000 nM; in assay [2] (setting [5]) it was less than 100 nM; in assay [3] (setting [6]) it was less than 100 nM.

On to `Cc1cc(NC(=O)C(=O)N2C[C@H](C)CC[C@@H]2c2ccccc2)cnc1N` (single isomer, unassigned) [Compound 37], for which the figures for the IC50 in assay [1] (setting [4]), in assay [2] (setting [5]) and in assay [3] (setting [6]) were 1000 to 10000 nM, 100 to 1000 nM and greater than 1000 nM, respectively.

Consider `Cc1cc(NC(=O)C(=O)N2C[C@@H](C)CC[C@@H]2c2ccc3sc([C@H]4CCN(C)C(=O)C4)nc3c2)cnc1N` [Compound 1333, N-(6-amino-5-methylpyridin-3-yl)-2-((2R,5S)-5-methyl-2-(2-(1-methyl-2-oxopiperidin-4-yl)benzo[d]thiazol-5-yl)piperidin-1-yl)-2-oxoacetamide], for which the IC50 is less than 1000 nM in assay [1] (setting [4]), less than 100 nM in assay [2] (setting [5]) and less than 100 nM in assay [3] (setting [6]).
